According to patent US20230053540A1, “TREATMENT OF LIVER INJURY” (Massachusetts Institute of Technology, priority 2019, published 2023):

Tested on: hepatocytes
Assay: Seq-Well scRNA-Seq of hepatocytes after APAP overdose (signature scores, DEG vs untreated)
Format: in vivo, mouse
[1] = cluster A96 (APAP, 96 h) vs other clusters, Wilcox
[2] = cluster A96, DEG between treatment (APAP and PH)

For `CC(=O)Nc1ccc(O)cc1` [APAP, acetaminophen], which “Acaa1b avg_logFC” value [1] is on record?
The value was 0.282.

And the “Acat1 avg_logFC” value [1]?
The value was 0.2558.

What about the “Acot1 avg_logFC” value [1] of the same compound?
Its value is 0.3106.

And the “Agpat6 avg_logFC” value [1]?
The value was 0.3143.

And the “Agt avg_logFC” value [1]?
Its value is 0.255.

And the “Akr1d1 avg_logFC” value [1]?
The value was 0.2994.

What about the “Aldh9a1 avg_logFC” value [1] of the same compound?
The value was 0.2585.

And the “Apo17a avg_logFC” value [1]?
Its value is 0.2518.

What about the “Apoc2 avg_logFC” value [1] of the same compound?
Its value is 0.2781.

What about the “Aqp9 avg_logFC” value [1] of the same compound?
The value was 0.3178.

What about the “Arl4a avg_logFC” value [1] of the same compound?
The value was 0.2706.

And the “Asl avg_logFC” value [1]?
The value was 0.275.

And the “Baat avg_logFC” value [1]?
The value was 0.2728.

And the “Bnip3 avg_logFC” value [1]?
The value was 0.3208.

What about the “Cd36 avg_logFC” value [1] of the same compound?
The value was 0.3129.

What about the “Ces1e avg_logFC” value [1] of the same compound?
The value was 0.2566.

And the “Cox5a avg_logFC” value [1]?
The value was 0.2728.

What about the “Cox6a1 avg_logFC” value [1] of the same compound?
Its value is 0.2746.

What about the “Cox8a avg_logFC” value [1] of the same compound?
The value was 0.2519.

What about the “Cpeb4 avg_logFC” value [1] of the same compound?
Its value is 0.3011.

What about the “Cpox avg_logFC” value [1] of the same compound?
The value was 0.3229.

And the “Cpt1a avg_logFC” value [1]?
Its value is 0.2626.

And the “Creg1 avg_logFC” value [1]?
Its value is 0.2517.

What about the “Csad avg_logFC” value [1] of the same compound?
The value was 0.4207.

And the “Ctage5 avg_logFC” value [1]?
Its value is 0.2535.

What about the “Cth avg_logFC” value [1] of the same compound?
The value was 0.2966.

What about the “Cxcl12 avg_logFC” value [1] of the same compound?
The value was 0.2822.

What about the “D4Wsu53e avg_logFC” value [1] of the same compound?
The value was 0.2928.

What about the “Decr2 avg_logFC” value [1] of the same compound?
The value was 0.3018.

What about the “Dhdh avg_logFC” value [1] of the same compound?
Its value is 0.2626.

And the “Etfdh avg_logFC” value [1]?
The value was 0.2639.

What about the “Etnppl avg_logFC” value [1] of the same compound?
The value was 0.3154.

And the “Fmo1 avg_logFC” value [1]?
The value was 0.265.

And the “G0s2 avg_logFC” value [1]?
The value was 0.2656.

What about the “G6pc avg_logFC” value [1] of the same compound?
Its value is 0.2541.

What about the “Gabarapl1 avg_logFC” value [1] of the same compound?
The value was 0.2932.

What about the “Gadd45b avg_logFC” value [1] of the same compound?
The value was 0.2598.

And the “Gas5 avg_logFC” value [1]?
Its value is 0.2823.

And the “Gm4952 avg_logFC” value [1]?
The value was 0.2581.

And the “Gsta2 avg_logFC” value [1]?
Its value is 0.311.

And the “Gstt3 avg_logFC” value [1]?
The value was 0.3026.

What about the “Gyk avg_logFC” value [1] of the same compound?
Its value is 0.3134.

And the “Hmgcl avg_logFC” value [1]?
Its value is 0.2744.

And the “Hmgcs1 avg_logFC” value [1]?
The value was 0.3251.

What about the “Hpgd avg_logFC” value [1] of the same compound?
The value was 0.3412.

And the “Hsd17b7 avg_logFC” value [1]?
The value was 0.3028.

And the “Hsd17b10 avg_logFC” value [1]?
Its value is 0.2802.

And the “Kif1b avg_logFC” value [1]?
The value was 0.2961.

And the “Leaf avg_logFC” value [1]?
Its value is 0.2616.

And the “Mia3 avg_logFC” value [1]?
Its value is 0.2605.

What about the “Ndufa3 avg_logFC” value [1] of the same compound?
Its value is 0.2743.

And the “Ndufa7 avg_logFC” value [1]?
Its value is 0.26.

And the “Nr1i3 avg_logFC” value [1]?
The value was 0.3481.

What about the “Oat avg_logFC” value [1] of the same compound?
Its value is 0.4904.

What about the “Pon1 avg_logFC” value [1] of the same compound?
The value was 0.2899.

What about the “Ppp1r3b avg_logFC” value [1] of the same compound?
Its value is 0.251.

And the “Ppp2r5a avg_logFC” value [1]?
The value was 0.3505.

And the “Ptms avg_logFC” value [1]?
The value was 0.2863.

And the “Pxmp4 avg_logFC” value [1]?
Its value is 0.2555.

What about the “Rdh16 avg_logFC” value [1] of the same compound?
The value was 0.3477.

And the “Sc4mol avg_logFC” value [1]?
The value was 0.3361.

What about the “Slc4a4 avg_logFC” value [1] of the same compound?
Its value is 0.2977.

And the “Slc25a20 avg_logFC” value [1]?
The value was 0.2507.

And the “Slco1a4 avg_logFC” value [1]?
The value was 0.3049.

And the “Snord118 avg_logFC” value [1]?
The value was 0.3782.

And the “Tgoln1 avg_logFC” value [1]?
Its value is 0.2809.

What about the “Tmed5 avg_logFC” value [1] of the same compound?
The value was 0.2523.

What about the “Tobi avg_logFC” value [1] of the same compound?
The value was 0.2958.

And the “Tsc22d3 avg_logFC” value [1]?
The value was 0.3362.

And the “Zfp36l1 avg_logFC” value [1]?
The value was 0.2964.

What about the “Zfp91 avg_logFC” value [1] of the same compound?
The value was 0.2775.

And the “avg_logFC, gene Abcc3” value [2]?
The value was 0.2743.

And the “avg_logFC, gene Acaa1b” value [2]?
The value was 0.282.

What about the “avg_logFC, gene Acat1” value [2] of the same compound?
Its value is 0.2558.

And the “avg_logFC, gene Acot1” value [2]?
Its value is 0.3106.

And the “avg_logFC, gene Agpat6” value [2]?
The value was 0.3143.

And the “avg_logFC, gene Agt” value [2]?
Its value is 0.255.

And the “avg_logFC, gene Akr1d1” value [2]?
The value was 0.2994.

What about the “avg_logFC, gene Aldh9a1” value [2] of the same compound?
Its value is 0.2585.

What about the “avg_logFC, gene Aplp2” value [2] of the same compound?
The value was 0.2903.

What about the “avg_logFC, gene Apo17a” value [2] of the same compound?
The value was 0.2518.

And the “avg_logFC, gene Apoc2” value [2]?
The value was 0.2781.

And the “avg_logFC, gene Aqp9” value [2]?
Its value is 0.3178.

And the “avg_logFC, gene Arl4a” value [2]?
The value was 0.2706.

What about the “avg_logFC, gene Asl” value [2] of the same compound?
The value was 0.275.

What about the “avg_logFC, gene Baat” value [2] of the same compound?
The value was 0.2728.

And the “avg_logFC, gene Bnip3” value [2]?
Its value is 0.3208.

And the “avg_logFC, gene Cd36” value [2]?
Its value is 0.3129.

What about the “avg_logFC, gene Ces1e” value [2] of the same compound?
The value was 0.2566.

What about the “avg_logFC, gene Cox5a” value [2] of the same compound?
The value was 0.2728.

And the “avg_logFC, gene Cox6a1” value [2]?
The value was 0.2745.

What about the “avg_logFC, gene Cox8a” value [2] of the same compound?
The value was 0.2519.

What about the “avg_logFC, gene Cpeb4” value [2] of the same compound?
The value was 0.3011.

What about the “avg_logFC, gene Cpox” value [2] of the same compound?
The value was 0.3229.

What about the “avg_logFC, gene Cpt1a” value [2] of the same compound?
Its value is 0.2626.

And the “avg_logFC, gene Creg1” value [2]?
Its value is 0.2517.

What about the “avg_logFC, gene Csad” value [2] of the same compound?
Its value is 0.4207.

What about the “avg_logFC, gene Ctage5” value [2] of the same compound?
Its value is 0.2535.

What about the “avg_logFC, gene Cth” value [2] of the same compound?
Its value is 0.2966.

And the “avg_logFC, gene Cxcl12” value [2]?
The value was 0.2821.

And the “avg_logFC, gene D4Wsu53e” value [2]?
Its value is 0.2928.
